How the values were obtained:
[1] = molecular target: T1, human PR (Homo sapiens, UniProt P06401); test: PR reporter gene (transactivation) assay, CHO-Gal4/PR; format: cell-based; conditions: up to 10 µM
T1 construct: host or cells: CHO (DSMZ ACC-110), CHO-Gal4/PR
T1 sequence (P06401 679-913 limits assumed): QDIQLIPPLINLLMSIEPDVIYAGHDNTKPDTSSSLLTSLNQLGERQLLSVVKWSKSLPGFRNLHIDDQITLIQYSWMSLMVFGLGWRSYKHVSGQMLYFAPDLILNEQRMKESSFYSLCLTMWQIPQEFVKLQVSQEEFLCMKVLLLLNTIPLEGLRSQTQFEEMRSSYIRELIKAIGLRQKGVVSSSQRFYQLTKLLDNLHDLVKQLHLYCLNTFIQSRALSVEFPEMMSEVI
Text: To create the CHO-Gal4/GR, CHO-Gal4/PR, and CHO-Gal4/MR reporter cell lines, first CHO cells were stably transfected with a GAL4-UAS-luciferase reporter construct. Then, the LBD of the GR, PR, or MR (GR Gene ID: 2908, PR Gene ID: 5241, MR Gene ID: 4306, respectively) was cloned into pIRES2-EGFP-GAL4 containing the DBD of GAL4 from pFA-AT2, and then co-transfected into the luciferase-reporter construct-containing CHO cells. These reporter cell lines express the respective nuclear hormone receptor LBD-DBD fusion proteins that control luciferase expression of a GAL4-upstream activation sequence (UAS)-luciferase reporter construct, allowing for detection of ligand- or compound-induced transactivation at the GR, PR, or MR by measuring luciferase activity.
Cryo-preserved CHO-Gal4/GR, CHO-Gal4/PR, and CHO-Gal4/MR cells were plated in medium at 7,500 cells/well in 384-well assay plates (25 μL/well), and incubated for 24 h. […] Following a 4-h incubation, cells were lysed and luminescence measured using the EMCCD camera FLIPR®Tetra (Molecular Devices, Silicon Valley, CA, United States).
Transactivation (i.e., gene activation) was expressed as a percentage of the reference agonist activity (Supplementary Material), using Genedata Screener® v15.0.5 software (Basel, Switzerland).
Transactivation was calculated according to this equation: […]

[2] = tested on: LPS-induced TNF-α release in rat whole blood; test: Inhibition of LPS-induced TNF-α release in rat whole blood; format: cell-based; conditions: 18 h
Procedure: Arterial blood was collected from male Sprague-Dawley rats (180–250 g; Janvier Labs, Le Genest-Saint-Isle, France) in heparin syringes. […] Plasma was collected via centrifugation and TNF-α measured using a TNFalpha Kit (PerkinElmer, Waltham, MA, United States), according to manufacturers’ instructions, and a microplate reader (EnVision Multilabel Reader®, PerkinElmer; Supplementary Material). The IC50 values for inhibition of TNF-α release were calculated by fitting concentration response curves to a four parameter nonlinear regression model using ActivityBase (XLfit® software; ID Business Solutions Ltd.). […] In addition, IC50,free values were determined by correcting the IC50 values for plasma protein binding (PPB); see the Supplementary Material for the calculation.
The immuno-assay-buffer provided in the kit was diluted 1:10 in water and the mouse TNF-α analyte standard was diluted in rat plasma (30,000–4 pg/mL). […] After a 30-min incubation at room temperature, the plates were read using an EnVision Multilabel Reader® (PerkinElmer) equipped with the ALPHA option using the AlphaScreen standard settings. […]

[3] = tested on: IL-1β–induced IL-6 release in A549 cells; test: Inhibition of IL-1β–induced IL-6 release in A549 cells; format: cell-based, human
Procedure: Cells from the human lung epithelial cell line A549 (CCL-185, ATCC) were seeded in 96-well plates at a density of […] in F12K Nutrient Mix (Gibco™, ThermoFisher Scientific, Waltham, MA, United States) with 10% fetal calf serum (FCS), and cultured for 24 h in standard conditions. […] After 30 min’ incubation, human IL-1β (1 ng/mL final concentration) was added at 50 µL/well, followed by a 20 h-incubation in standard conditions. Human IL-6 was measured in the collected supernatant using the human AlphaLISA® immunoassay kit (PerkinElmer; Supplementary Material).
Per the human AlphaLISA® (PerkinElmer) immunoassay kit instructions, the immuno-assay buffer was diluted 1:10 in water and the human IL-6 analyte standard was diluted in FCS-free F12K nutrient mix (30,000–10 pg/mL). Each standard dilution or sample (5 μL each) was added to the wells of a 96-well polystyrene compound plate, to which 20 µL of the test mix 1 (containing anti-IL-6 acceptor beads and biotinylated anti-IL-6 antibody diluted 1:200 in immuno-assay-buffer) was added to each well and incubated for 1 h at room temperature. Afterwards, donor beads were diluted 1:62.5 in immuno-assay-buffer and 25 µL were transferred to each well. After a 30-min incubation at room temperature, the plates were read using an EnVision Multilabel Reader® (PerkinElmer) equipped with the ALPHA option.

[4] = tested on: OPG release in human osteoblast cell line MG-63; test: Inhibition of OPG release in MG-63 osteoblast cells; format: cell-based; conditions: MG-63 cells, 24 h
Procedure: ([Humphrey et al., 2006]). […] After a 24-h incubation in standard conditions, supernatant was collected and OPG measured using the human osteoprotegerin/TNFRSF11B DuoSet® ELISA (R&D Systems, Minneapolis, MN, United States), according to the manufacturer’s instructions (Supplementary Material). A 3-parameter nonlinear regression was performed using GraphPad PRISM v7.03 software (Graphpad Software Inc.) to determine IC50 values.
All incubations in this assay were conducted at room temperature. Anti-OPG capture antibodies, diluted in Dulbecco's phosphate-buffered saline (DPBS), were transferred into a coated 96-well plate (100 µL/well). After overnight incubation, and triplicate washing (400 µL/well) with wash buffer (0.05% Tween 20 in DPBS, pH 7.2–7.4), 300 µL of Reagent Diluent (1% bovine serum albumin [BSA] in DPBS) was added, followed by a 1-h incubation, and thereafter three washing steps again. Then, 100 µL of supernatant, standard or reagent diluent were added per well for a 2-h incubation. After repeating three washing steps, 100 µL of detection antibody diluted in reagent diluent (including normal goat serum) were added to each well, followed by a 2-h incubation. After repeating three washing steps, 100 µL of Streptavidin conjugated to horseradish-peroxidase solution was added per well for a 20-min incubation. Finally, 50 µL/well of stop solution was added. After gently shaking of the plate to ensure thorough mixing, the optical density of each well was determined immediately using the Eon™ Microplate Spectrophotometer (Bio Tek Instruments) set at 450 nm.
Supplementary Figure S2. […] Error bars indicate standard error of the mean. […] Log c, log concentration.

[5] = tested on: IFN-γ release in human whole blood; parameters: method as in Hu et al., 2011; conditions: at concentrations each of 100–1000 nM ref Hu et al., 2011; cited from earlier work

In the case of `C[C@]12C=CC(=O)C=C1CC[C@@H]1[C@@H]2[C@@H](O)C[C@@]2(C)[C@H]1CC[C@]2(O)C(=O)CO` [Prednisolone], the PR transactivation [1] is reported as “no detectable transactivation”, the IC50 [2] is reported as 8.1 ± 2.1 nM and the “Inhibition of LPS-induced TNF-α release” value [2] is reported as 99 ± 3%. For the same compound, the “Inhibition of IL-1β–induced IL-6 release” value ([3]; 100% = 1 μM dexamethasone) was 101 ± 2.7%, the IC50 ([3]; Homo sapiens, IL-1β 1 ng/mL, 20 h) was 0.86 ± 0.13 nM and the IC50 ([4]; Homo sapiens) was 3.1 ± 4.3 nM. The “Inhibition of OPG release (maximal level)” value [4] was 100 ± 0%, the “Inhibition of OPG release (maximal level)” value ([4]; listed as prednisolone) was “fully inhibiting OPG release” and the “inhibition of IFN-γ release in human whole blood” value [5] was 85–100%.

Reference: article PMC11920646 (Frontiers in Pharmacology, 2025)
